The values that follow come from patent US8017727B2, “Conjugates of membrane translocating agents and pharmaceutically active agents” (Merrion Research III Limited, priority 1999, dated 2011).

In one series the test system is Caco-2 cell monolayers. The experiment in a line: Permeability of tritiated kappa peptide conjugates through differentiated Caco-2 cell monolayers. The format is in vitro ADME, human. The note with it: n=5. On the procedure:
Highest transport values were obtained in the first 30 min followed by a 2-4 fold decrease at 60 min. The significance of these findings is unclear. The data may be indicative of dual binding/uptake events occurring through i) a kappa receptor specific mechanism and ii) direct membrane interaction through lipid interaction of the membrane permeable peptide.

Series [1] in a line: Systemic 3H bioavailability of kappa peptide conjugates, conscious rat model (plasma). The class given is in vivo, Wistar rats. The note with it: intraduodenal (ID), 100 μCi. On the procedure:
The possible enhancing effects of ELAN094 and ELAN207 MTLPs (SEQ ID NOs 2 and 60) on intestinal absorption of the kappa peptide were examined in a conscious rat model.
The study was non-randomised, parallel group design. Wistar rats within the 250-350 g weight range were used. All animals were fasted for a period of 16 h prior to study initiation. Water was available at all times.
Intravenous injection of 10 μCi of ^3H-kappa peptide-Kaffiralin-1 (plain kappa peptide) (tail vein injection).
Intraduodenal instillation of 100 μCi of ^3H-kappa peptide-Elan094 (Analysed). The Elan094 ligand contains a membrane translocating sequence.
Intraduodenal instillation of 100 μCi of ^3H-kappa peptide-Elan207 (Analysed). The Elan207 ligand contains a membrane translocating sequence.
Intraduodenal instillation of 100 μCi of ^3H-kappa peptide-Kaffiralin-1.
The plasma (100-250 μl) was made up to 1 ml with BTS-450 (an organic tissue solubiliser) and incubated for 1 hour. Ten ml of Scintillation fluid was added and the radioactivity was measured.
The study was a non-randomised, parallel group biostudy designed to evaluate the systemic bioavailability of tritium labelled kappa peptide conjugates after intra-duodenal instillation in the conscious rat model. Each rat only received one treatment and the plasma samples were analysed for tritium content. The calculation of AUClast, Amax, tmax, Volume of Distribution (V d) and Clearance was based on base line corrected data. The absolute bioavailability was calculated using potency corrected data.

Series [2] is described as follows: 3H tissue distribution of kappa peptide conjugates, conscious rat model. The format is in vivo, Wistar rats. The note with it: ID, 100 μCi, potency corrected. On the procedure: The tissue was weighed and a representative sample, (ca 0.1 g), was removed to a scintillation vial. The tissue was solubilzed with 1 ml of BTS-450 (an organic tissue solubliser). Ten ml of scintillation fluid was added and the radioactivity was measured. The radioactivity was expressed as dpm/initial weight of tissue.

A short description of series [3]: Opioid peptide stability in SIF (pancreatin, pH 7.5, HPLC/LCMS). The format is in vitro ADME. On the procedure: Pancreatin (Fisher Scientific) was dissolved at 1 mg/ml in 1× phosphate buffer solution. The pH of the solution was adjusted to 7.5 with 0.01 M NaOH and it was heated in a waterbath to 37° C. Two dry peptide samples were weighed out. One sample was dissolved in phosphate buffer solution at 1.0 mg/ml as a control. The second sample was dissolved in SIF at 1.0 mg/ml for stability analysis. HPLC Analysis Conditions RP-HPLC analysis with C-18 short column (Betasil column, 5 μm (50×3 mm) PN: 055-701-3) with the following gradient: […]
Diode array detector on the system, 214 nm used for analysis
Solution in SIF injected at 0, 1, 3, and 24 hours
Analyzed control and 24 hour sample by LCMS.

The target in the next series is T1, kappa receptor (Rattus norvegicus, UniProt P34975).
T1 construct: from tissue; host or cells: rat brain homogenate
The experiment in a line: Competition for binding of a radiolabelled kappa peptide to rat brain homogenates. The note with it: IC50, Day 82, first of triplicates. On the procedure: The integrity of the opioid peptide was evaluated post conjugation to assess suitability for inclusion in further studies. Opioid activity was assessed in vitro using a competition assay (competition for binding of a radiolabelled kappa peptide to rat brain homogenates).

A short description of series [4]: Stability of MTLPs in simulated intestinal fluid pH 6.8 with pancreatin (HPLC recovery). On the procedure:
MTLPs ZElan094 and ZElan207 (SEQ. ID NO: 2 and 60) were dissolved in water and mixed with simulated intestinal fluid pH 6.8 containing porcine derived pancreatin (SIF+Pancreatin) at 37° C. The mixtures were incubated for up to 60 minutes at 37° C., with aliquots taken at designated time points. The reaction was quenched with quenching solution after the relevant time points in order to halt the reaction between the SIF and ligand.
Approximately 1 mg of ligand was dissolved in 1 ml of water. This standard stock solution of ligand was used to prepare the solutions containing Ligand+SIF+Pancreatin. 50 μL of ligand solution was mixed with volumes of SIF+Pancreatin in separate eppendorfs, as follows:
At the appropriate time point the reaction between the ligand and SIF was stopped by pipetting 100 μL of the mixture into 500 μL of quenching solution (Acetonitrile:Water 30:70). 20 μL of the mixture was injected onto the HPLC system.
Control samples of ligand in water and in quenching solution were prepared to check for recovery of ligand in the absence of SIF+Pancreatin.

For the next series, the system named is Caco-2 monolayers. As to the kind of experiment: Transport of dipeptide 14C-gly-sar across Caco-2 monolayers. The class given is cell-based, human. On the set-up: key to % inhibition 14C-gly-sar transport: NS: no significant difference between experimental (+MTLP) and control cells (−MTLP) in the transport of radiolabeled drug. The note with it: flux measured over 2 h. On the procedure:
The effect of the MTLPs ZElan094, ZElan178 and ZElan187 (SEQ ID NOS: 2, 7 and 16) and of the targeting peptide ZElan022 (U.S. patent application Ser. Nos. 09/079,819, 09/079,723 AND 09/079,678, AND PCT APPLICATION PCT/US98/10088, PUBLISHED AS WO 98/51325) on the transport of the dipeptide ^14C-gly-sar and of the reporter molecule ^3H-fMLP across Caco-2 monolayers was determined. The Caco-2 monolayers were grown on Transwell-Snapwells. Cell viability was determined by measuring TEER of the Caco-2 monolayers during each experiment. No significant drop in TEER was measured. Cell permeability was determined by measuring mannitol flux across the Caco-2 monolayers during each experiment. No increase in mannitol flux was measured in the presence of the MTLP ZElan094.
The flux of the dipeptide ^14C-gly-sar and of the reporter molecule ^3H-fMLP across the Caco-2 monolayers in the absence and in the presence of the MTLPs ZElan094, ZElan178 and ZElan187 (SEQ ID NOS: 2, 7 and 16) and of the targeting peptide ZElan022 (U.S. patent application Ser. Nos. 09/079,819, 09/079,723 AND 09/079,678), AND PCT APPLICATION PCT/US98/10088, PUBLISHED AS WO 98/51325 was measured over 2 h, and reduction in the permeability coefficient was determined in the presence of cold substrates.
Background: Passage across Caco-2 layers is used to estimate intestinal permeability.

As usually defined, the bioavailability is dose-corrected exposure relative to a reference, in per cent. As a reminder, the IC50 is the midpoint of a concentration-inhibition curve.

For the compound `CC[C@@H](C)[C@@H](NC(=O)[C@@H](Cc1ccccc1)NC(=O)[C@@H](Cc1ccccc1)NC(=O)[C@H](CCCCN)NC(=O)[C@@H]1CCCN1C(=O)[C@H](C)NC(=O)[C@H](C)NC(=O)[C@H](CC(C)C)NC(=O)[C@H](CC(C)C)NC(=O)[C@@H](NC(=O)[C@@H]1CCCN1C(=O)[C@H](CC(C)C)NC(=O)[C@H](CC(C)C)NC(=O)[C@@H](NC(=O)[C@H](C)NC(=O)[C@H](C)NC(=O)[C@H](C)NC(=O)[C@H](CCCCN)NC(=O)[C@@H](N)CCCCN)C(C)C)C(C)C)C(=O)N[C@H](CCCNC(=N)N)C(N)=O` [3H-Kappa peptide-Elan094], in the series with Caco-2 cell monolayers, the “permeability compared to the kappa peptide control” value is on record as “No significant increase”. Further, the “fold increase in absolute 3H bioavailability versus kappa peptide without ligand” value in series [1] is given as approximately 6 fold. For the same compound, in series [1] (Elan207 = original group), the “3H AUClast” value stood at 260642.53±35010.58 dpm/ml·h and the “3H Amax (maximum radioactivity)” value was found to be 158512.67±18907.79 dpm/ml. Further, in series [1] (listed as Elan094 MTLP), the “fold increase in absolute 3H bioavailability versus kappa peptide without ligand” value was “approximately 5.8 fold”. In addition, the bioavailability in series [1] (rat, plasma, potency corrected, Elan207 = original group, read-out: Absolute 3H bioavailability) was determined as 46.5 ± 6.24%. Moreover, in series [2], the “Catheter, % of administered dose” value was 0.20 ± 0.10%; the “GI Tissue, % of administered dose” value stood at 11.61 ± 11.27%; the “GI Washing, % of administered dose” value stood at 9.70 ± 5.24%; the “GI contents, % of administered dose” value is on record as 23.57 ± 21.57%. In series [2], the “Liver, % of administered dose” value came to 0.37 ± 0.06% and the “Total GI (% recovery from GI tissue, GI contents & GI wash)” value turned out to be 44.89 ± 19.94%. In addition, in series [2] (t=6 h), the “Kidney, % of administered dose” value stood at 0.12 ± 0.07%; the “Plasma, % of administered dose” value is 0.42±0.08%; the “Total Recovery, % of administered dose” value is 46.00 ± 19.91%.
Consider `CC[C@@H](C)[C@@H](NC(=O)[C@@H](Cc1ccccc1)NC(=O)[C@H](N)Cc1ccccc1)C(=O)N[C@H](CCCNC(=N)N)C(N)=O` [H-ffir-NH2], for which the “stability in SIF” value in series [3] (over the 24 hour period) is listed as “very stable”. The remaining at 1 h, 1 mg/ml in series [3] (simulated intestinal fluid (SIF) with pancreatin, pH 7.5, SIF, 37° C., 1 hr, read-out: % Compound) was 105%. Besides, the remaining at 24 h, 1 mg/ml in series [3] (simulated intestinal fluid (SIF) with pancreatin, pH 7.5, SIF, 37° C., 24 hr, read-out: % Compound) was 101%. In addition, at kappa receptor, the IC50 came to 4 nM.
For the compound `CC(C)C[C@@H](NC(=O)[C@@H](CC(C)C)NC(=O)[C@H](NC(=O)[C@H]1CCCN1C(=O)[C@@H](CC(C)C)NC(=O)[C@@H](CC(C)C)NC(=O)[C@H](NC(=O)[C@@H](C)NC(=O)[C@@H](C)NC(=O)[C@@H](C)NC(=O)[C@@H](CCCCN)NC(=O)[C@@H](CCCCN)NC(=O)[C@H](N)CCCCNS(=O)(=O)c1cccc2c(N(C)C)cccc12)C(C)C)C(C)C)C(=O)N[C@H](C)C(=O)N[C@H](C)C(=O)N1CCC[C@@H]1C(N)=O` [ZElan207], the recovery in series [4] (% Recovery, control without SIF: Pep + H2O (100 ul) + H2O, 60 min) was 101%; in series [4] (% Recovery, control without SIF: Pep + H2O (100 ul) + quenching solution, 60 min) it was 101%; in series [4] (pH 6.8, % Recovery, Peptide + 100 uL SIF pH 6.8, 37 C, 5 min), 96.6%; in series [4] (pH 6.8, % Recovery, Peptide + 100 uL SIF pH 6.8, 37 C, 10 min) it was 97.4%; in series [4] (pH 6.8, % Recovery, Peptide + 100 uL SIF pH 6.8, 37 C, 30 min), 87.8%; in series [4] (pH 6.8, % Recovery, Peptide + 100 uL SIF pH 6.8, 37 C, 60 min), 97.7%. The recovery in series [4] (pH 6.8, % Recovery, Peptide + 200 uL SIF pH 6.8, 37 C, 5 min) is 99%; in series [4] (pH 6.8, % Recovery, Peptide + 200 uL SIF pH 6.8, 37 C, 10 min), 96.3%; in series [4] (pH 6.8, % Recovery, Peptide + 200 uL SIF pH 6.8, 37 C, 30 min) it was 92.8%; in series [4] (pH 6.8, % Recovery, Peptide + 200 uL SIF pH 6.8, 37 C, 60 min) it was 96.5%.
Consider “H-K(ε-dansyl)KKAAVLLPVLLA-NH2 ({K(ε-dansyl)}-KKAAVLLPVLLA-NH2) [ZElan187]”, for which, in the series on Caco-2 monolayers, the “% inhibition 14C-gly-sar transport” value is on record as “NS” and the “inhibition of 14C-gly-sar transport” value is “did not inhibit transport”.
The corresponding values for “H-K(ε-dansyl)KKCAAVLLPVLLAC-NH2 ({K(ε-dansyl)}-KKCAAVLLPVLLAC-NH2; not fully specified; printed as H-K(ε-dansyl)KKCAAVLLPVLLAC-NH2; also: cyclic internal, bridge kind and places not given here) [ZElan178]” are “NS” and “did not inhibit transport”.
